Results from article PMC6222545, “Evaluating Marine Cyanobacteria as a Source for CNS Receptor Ligands” (Molecules : A Journal of Synthetic Chemistry and Natural …, 2018).

Columns and labels:
5-HT2C = biological target: T1, 5-HT2C (Homo sapiens, UniProt P28335); experiment: PDSP radioligand competitive binding, 5-HT2C
T1 sequence (P28335 33-458): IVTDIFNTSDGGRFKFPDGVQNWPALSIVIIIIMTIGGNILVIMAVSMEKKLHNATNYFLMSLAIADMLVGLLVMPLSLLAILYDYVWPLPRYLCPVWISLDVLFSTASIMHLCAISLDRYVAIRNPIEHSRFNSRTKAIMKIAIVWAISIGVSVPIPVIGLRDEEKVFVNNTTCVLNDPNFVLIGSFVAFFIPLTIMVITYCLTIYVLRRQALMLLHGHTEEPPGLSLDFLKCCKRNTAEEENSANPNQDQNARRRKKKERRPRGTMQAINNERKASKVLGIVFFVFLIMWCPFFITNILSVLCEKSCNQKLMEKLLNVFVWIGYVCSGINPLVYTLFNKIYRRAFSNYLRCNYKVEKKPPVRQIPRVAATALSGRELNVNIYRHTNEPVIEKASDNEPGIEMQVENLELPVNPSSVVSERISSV
Method: (§1) Prior to screening, cyanobacterial samples are extracted exhaustively in a solution of dichloromethane and methanol, then the extract is subjected to column chromatography using the solvent step gradient illustrated in Figure 1 to create nine fractions. The polarities of the solvents in this step gradient increase linearly with each fraction. A sample of each fraction and the crude is prepared and sent to the NIMH Psychoactive Drug Screening Program (PDSP) for screening against a panel of ~50 receptor including 5-HTRs, DARs, MATs, σRs, and other CNS receptors.
(§2) From the extracts of 37 cyanobacterial field collections from Panama and Curacao, 19 crude extracts and 301 fractions were sent to PDSP for CNS screening. Due to sample size requirements not all fractions created are sent for screening, resulting in a lower number of total fractions screened compared to the theoretical amount of 370 fractions and crudes. […] Data analysis of results from these screens is presented herein.
(§3) A cyanobacterial biomass collected at Isla Mina, Panama was extracted exhaustively with CH2Cl2-MeOH (2:1) to afford 3.3 g of crude extract given the identification code DUQ0008. This extract was fractionated to yield nine fractions (A–I). The crude extract, along with the nine fractions were submitted to PDSP for screening. […]

σ2R = biological target: T2, σ2R (Rattus norvegicus, UniProt Q5U3Y7); experiment: PDSP radioligand competitive binding, σ2R
T2 sequence (Q5U3Y7 1-176): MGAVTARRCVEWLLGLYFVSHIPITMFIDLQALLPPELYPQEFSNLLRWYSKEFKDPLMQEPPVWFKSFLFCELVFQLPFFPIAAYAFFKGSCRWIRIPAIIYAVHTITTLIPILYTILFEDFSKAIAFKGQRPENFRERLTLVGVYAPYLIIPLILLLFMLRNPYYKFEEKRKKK
Method: as §1, §2, §3

[1] = system: 5-HTRs or any other receptor; experiment: PDSP primary radioligand binding screen, CNS receptor panel; design: dose or concentration left out as unconfirmed; conditions: data not shown
Method: as §1, §2
IC50 determinations/receptor binding profiles were generously provided by the National Institute of Mental Health’s Psychoactive Drug Screening Program, Contract # HHSN-271-2018-00023-C (NIMH PDSP). The NIMH PDSP is Directed by Bryan L. Roth MD, PhD at the University of North Carolina at Chapel Hill and Project Officer Jamie Driscoll at NIMH, Bethesda MD, USA. Detailed information regarding the assay protocol can be found at http://pdspdb.unc.edu/pdspWeb/.

[2] = pure compound resubmitted to PDSP

SMILES	inhibition of binding at 5-HT2C (5-HT2C; primary binding, pure compound)	Ki (5-HT2C; [2]) [nM]	affinity for the σ2R (σ2R; in words)	Ki (σ2R; [2]) [nM]	inhibition of radioligand binding at 5-HTRs or any other receptor [1] [%]
C#CCCC[C@H]1OC(=O)[C@H](C(C)C)N(C)C(=O)[C@@H]2CCCN2C(=O)[C@H]([C@@H](C)CC)OC(=O)[C@H](C(C)C)N(C)C(=O)[C@H](C(C)C)NC(=O)[C@H]1C [compound 1, veraguamide C]	greater than 50%	> 10000	moderate and selective affinity	316	
CCCCCCCCC/C(C)=C/C(C/C=C/CCC(=O)OCC)OC (stereo not shown) [compound 2]					< 50
CCCCCCC[C@H]1C[C@@H]1CCC(=O)OCC [compound 3]					< 50
C=C(CCCCCCCCCCCCC)CCCC(=O)O/C=C/COC(C)=O [compound 4, propenediester]					< 50
